Source: US12435044B2, “Pyridazinone herbicides and pyridazinone intermediates used to prepare a herbicide” (FMC Corporation, priority 2018, dated 2025)

How the values were obtained:
Format in all cases: in vivo
[1] = system: rice flatsedge (Cyperus iria); test: Test F flooded paddy test; settings: Flood, after 21 d
Description: (§1) Three plastic pots (ca. 16-cm diameter) per rate were partially filled with sterilized Tama silt loam soil comprising a 35:50:15 ratio of sand, silt and clay and 2.6% organic matter. Separate plantings for each of the three pots were as follows. Seeds from the U.S. of monochoria (Monochoria vaginalis), sedge, umbrella (small-flower umbrella sedge, Cyperus difformis) and redstem (purple redstem, Ammannia coccinea), were planted into one 16-cm pot for each rate. Seeds from the U.S. of rice flatsedge (Cyperus iria), sprangletop, Brdd. (bearded sprangletop, Leptochloa fascicularis), one stand of 9 or 10 water seeded rice seedlings (Rice, W. S. Jap, Oryza sativa cv. ‘Japonica-M202’ or Rice, W. S. Ind, ‘Indica’), and two stands of 3 or 4 transplanted rice seedlings (Oryza sativa cv. ‘Japonica-M202’) were planted into one 16-cm pot for each rate. Seeds from the U.S. of barnyardgrass (Echinochloa crus-galli), and late watergrass (Echinochloa oryzicola) were planted into one 16-cm pot for each rate.
(§2) Plantings were sequential so that crop and weed species were at the 2.0 to 2.5-leaf stage at time of treatment.
(§3) Potted plants were grown in a greenhouse with day/night temperature settings of 30/27° C., and supplemental balanced lighting was provided to maintain a 16-hour photoperiod. Test pots were maintained in the greenhouse until test completion.
(§4) At time of treatment, test pots were flooded to 3 cm above the soil surface, treated by application of test compounds directly to the paddy water, and then maintained at that water depth for the duration of the test. Effects of treatments on rice and weeds were visually evaluated by comparison to untreated controls after 21 d. Plant response ratings, summarized in Table F, are based on a scale of 0 to 100 where 0 is no effect and 100 is complete control. A dash (-) response means no test result.

[2] = system: common ragweed (AMBEL; Ambrosia artemisiifolia); test: Test J pre-/postemergence, mixtures of Cpd. No. 20 with (b15C2)
Description: (§5) This test evaluated the effect of mixtures of Cpd. No. 20 with (b15C2) on several plant species. Seeds of plant species selected from corn (ZEAMD; Zea mays, cv. ‘Pioneer 1184’), soybean (GLXMA; Glycine max, cv. Pioneer 35T58), giant foxtail (SETFA; Setaria faberi), palmer amaranth (AMAPA; Amaranthus palmeri), common waterhemp (AMATU; Amaranthus rudis), mare's tail (ERICA; Conyza canadensis), and common ragweed (AMBEL; Ambrosia artemisiifolia) were planted in pots containing Tama Silt Loam soil and treated preemergence with a directed soil spray using test chemicals formulated in a non-phytotoxic solvent mixture which included a surfactant.
(§6) At the same time, plants selected from these crop and weed species were planted in pots containing Redi-Earth® planting medium (Scotts Company, 14111 Scottslawn Road, Marysville, Ohio 43041) comprising spaghnum peat moss, vermiculite, wetting agent and starter nutrients and treated postemergence with test chemicals formulated in the same manner. Plants ranged in height from 2 to 10 cm and were in the one- to two-leaf stage for the postemergence treatment. Treated plants and untreated controls were maintained in a greenhouse for approximately 14-21 d, after which time all treated plants were compared to untreated controls and visually evaluated for injury. Plant response ratings, summarized in Tables J1 & J2, are based on a 0 to 100 scale where 0 is no effect and 100 is complete control. A dash (-) response means no test result. Test results are presented as a mean of 4 reps.

[3] = system: common waterhemp (AMATU; Amaranthus rudis); test: as above
Description: as §5, §6

[4] = system: corn (ZEAMD; Zea mays, cv. ‘Pioneer 1184’); test: as above
Description: as §5, §6

[5] = system: giant foxtail (SETFA; Setaria faberi); test: as above
Description: as §5, §6

[6] = system: mare's tail (ERICA; Conyza canadensis); test: as above
Description: as §5, §6

[7] = system: palmer amaranth (AMAPA; Amaranthus palmeri); test: as above
Description: as §5, §6

[8] = system: soybean (GLXMA; Glycine max, cv. Pioneer 35T58); test: as above
Description: as §5, §6

[9] = system: sprangletop, Brdd. (bearded sprangletop, Leptochloa fascicularis); test: Test F flooded paddy test; settings: Flood, after 21 d
Description: as §1, §2, §3, §4

Question: `Cc1ccc2ccc(C)c(-c3c(O)c(Cl)nn(C)c3=O)c2c1` [Cpd. No. 20, 6-chloro-4-(2,7-dimethyl-1-naphthalenyl)-5-hydroxy-2-methyl-3(2H)-pyridazinone] was tested. Which “Plant response rating (0 to 100 scale)” value ([1]; 31 g ai/ha) did it give?
Answer: Its value is 70.

Question: What about the “Plant response rating (0 to 100 scale)” value ([1]; 62 g ai/ha) of the same compound?
Answer: Its value is 85.

Question: And the “Plant response rating (0 to 100 scale)” value ([1]; 125 g ai/ha)?
Answer: Its value is 97.

Question: What about the “Plant response rating (0 to 100 scale)” value ([1]; 250 g ai/ha) of the same compound?
Answer: Its value is 100.

Question: And the “AMBEL plant response rating, 0 to 100 scale” value (from here on “AMBEL plant response rating”) ([2]; postemergence, 8 g a.i./ha)?
Answer: Its value is 86.

Question: What about the “AMBEL plant response rating” value ([2]; postemergence, 16 g a.i./ha) of the same compound?
Answer: Its value is 93.

Question: And the “AMBEL plant response rating” value ([2]; postemergence, 31 g a.i./ha)?
Answer: The value was 91.

Question: What about the “AMBEL plant response rating” value ([2]; postemergence, 62 g a.i./ha) of the same compound?
Answer: The value was 95.

Question: What about the “AMBEL plant response rating” value ([2]; preemergence, 8 g a.i./ha) of the same compound?
Answer: Its value is 0.

Question: And the “AMBEL plant response rating” value ([2]; preemergence, 16 g a.i./ha)?
Answer: The value was 100.

Question: What about the “AMBEL plant response rating” value ([2]; preemergence, 31 g a.i./ha) of the same compound?
Answer: The value was 86.

Question: And the “AMBEL plant response rating” value ([2]; preemergence, 62 g a.i./ha)?
Answer: Its value is 96.

Question: And the “AMATU plant response rating, 0 to 100 scale” value (shortened to “AMATU plant response rating”) ([3]; postemergence, 8 g a.i./ha)?
Answer: Its value is 55.

Question: What about the “AMATU plant response rating” value ([3]; postemergence, 16 g a.i./ha) of the same compound?
Answer: Its value is 53.

Question: What about the “AMATU plant response rating” value ([3]; postemergence, 31 g a.i./ha) of the same compound?
Answer: Its value is 71.

Question: And the “AMATU plant response rating” value ([3]; postemergence, 62 g a.i./ha)?
Answer: Its value is 86.

Question: And the “AMATU plant response rating” value ([3]; preemergence, 8 g a.i./ha)?
Answer: Its value is 0.

Question: What about the “AMATU plant response rating” value ([3]; preemergence, 16 g a.i./ha) of the same compound?
Answer: The value was 20.

Question: And the “AMATU plant response rating” value ([3]; preemergence, 31 g a.i./ha)?
Answer: The value was 29.

Question: What about the “AMATU plant response rating” value ([3]; preemergence, 62 g a.i./ha) of the same compound?
Answer: The value was 50.

Question: What about the “ZEAMD plant response rating, 0 to 100 scale” value (“ZEAMD plant response rating” below) ([4]; postemergence, 8 g a.i./ha) of the same compound?
Answer: The value was 0.

Question: And the “ZEAMD plant response rating” value ([4]; postemergence, 16 g a.i./ha)?
Answer: The value was 0.

Question: And the “ZEAMD plant response rating” value ([4]; postemergence, 31 g a.i./ha)?
Answer: The value was 0.

Question: And the “ZEAMD plant response rating” value ([4]; postemergence, 62 g a.i./ha)?
Answer: Its value is 0.

Question: And the “ZEAMD plant response rating” value ([4]; preemergence, 8 g a.i./ha)?
Answer: Its value is 0.

Question: What about the “ZEAMD plant response rating” value ([4]; preemergence, 16 g a.i./ha) of the same compound?
Answer: The value was 0.

Question: And the “ZEAMD plant response rating” value ([4]; preemergence, 31 g a.i./ha)?
Answer: The value was 0.

Question: What about the “ZEAMD plant response rating” value ([4]; preemergence, 62 g a.i./ha) of the same compound?
Answer: The value was 0.

Question: What about the “SETFA plant response rating, 0 to 100 scale” value (from here on “SETFA plant response rating”) ([5]; postemergence, 8 g a.i./ha) of the same compound?
Answer: Its value is 34.

Question: What about the “SETFA plant response rating” value ([5]; postemergence, 16 g a.i./ha) of the same compound?
Answer: Its value is 69.

Question: And the “SETFA plant response rating” value ([5]; postemergence, 31 g a.i./ha)?
Answer: The value was 75.

Question: What about the “SETFA plant response rating” value ([5]; postemergence, 62 g a.i./ha) of the same compound?
Answer: Its value is 80.

Question: What about the “SETFA plant response rating” value ([5]; preemergence, 8 g a.i./ha) of the same compound?
Answer: The value was 15.

Question: What about the “SETFA plant response rating” value ([5]; preemergence, 16 g a.i./ha) of the same compound?
Answer: The value was 63.

Question: What about the “SETFA plant response rating” value ([5]; preemergence, 31 g a.i./ha) of the same compound?
Answer: Its value is 78.

Question: And the “SETFA plant response rating” value ([5]; preemergence, 62 g a.i./ha)?
Answer: The value was 89.

Question: And the “ERICA plant response rating, 0 to 100 scale” value (shortened to “ERICA plant response rating”) ([6]; postemergence, 8 g a.i./ha)?
Answer: The value was 85.

Question: And the “ERICA plant response rating” value ([6]; postemergence, 16 g a.i./ha)?
Answer: The value was 90.

Question: And the “ERICA plant response rating” value ([6]; postemergence, 31 g a.i./ha)?
Answer: Its value is 90.

Question: And the “ERICA plant response rating” value ([6]; postemergence, 62 g a.i./ha)?
Answer: Its value is 90.

Question: And the “ERICA plant response rating” value ([6]; preemergence, 8 g a.i./ha)?
Answer: Its value is 58.

Question: And the “ERICA plant response rating” value ([6]; preemergence, 16 g a.i./ha)?
Answer: Its value is 90.

Question: And the “ERICA plant response rating” value ([6]; preemergence, 31 g a.i./ha)?
Answer: Its value is 94.

Question: And the “ERICA plant response rating” value ([6]; preemergence, 62 g a.i./ha)?
Answer: The value was 95.

Question: And the “AMAPA plant response rating, 0 to 100 scale” value (“AMAPA plant response rating” below) ([7]; postemergence, 8 g a.i./ha)?
Answer: Its value is 18.

Question: What about the “AMAPA plant response rating” value ([7]; postemergence, 16 g a.i./ha) of the same compound?
Answer: The value was 15.

Question: What about the “AMAPA plant response rating” value ([7]; postemergence, 31 g a.i./ha) of the same compound?
Answer: Its value is 33.

Question: What about the “AMAPA plant response rating” value ([7]; postemergence, 62 g a.i./ha) of the same compound?
Answer: The value was 63.

Question: And the “AMAPA plant response rating” value ([7]; preemergence, 8 g a.i./ha)?
Answer: Its value is 20.

Question: And the “AMAPA plant response rating” value ([7]; preemergence, 16 g a.i./ha)?
Answer: Its value is 46.

Question: And the “AMAPA plant response rating” value ([7]; preemergence, 31 g a.i./ha)?
Answer: Its value is 48.

Question: And the “AMAPA plant response rating” value ([7]; preemergence, 62 g a.i./ha)?
Answer: Its value is 60.

Question: And the “GLXMA plant response rating, 0 to 100 scale” value (from here on “GLXMA plant response rating”) ([8]; postemergence, 8 g a.i./ha)?
Answer: The value was 3.

Question: What about the “GLXMA plant response rating” value ([8]; postemergence, 16 g a.i./ha) of the same compound?
Answer: Its value is 4.

Question: And the “GLXMA plant response rating” value ([8]; postemergence, 31 g a.i./ha)?
Answer: Its value is 9.

Question: What about the “GLXMA plant response rating” value ([8]; postemergence, 62 g a.i./ha) of the same compound?
Answer: Its value is 6.

Question: What about the “GLXMA plant response rating” value ([8]; preemergence, 8 g a.i./ha) of the same compound?
Answer: Its value is 0.

Question: What about the “GLXMA plant response rating” value ([8]; preemergence, 16 g a.i./ha) of the same compound?
Answer: The value was 0.

Question: And the “GLXMA plant response rating” value ([8]; preemergence, 31 g a.i./ha)?
Answer: The value was 0.

Question: And the “GLXMA plant response rating” value ([8]; preemergence, 62 g a.i./ha)?
Answer: The value was 20.

Question: `Cc1cc(Cl)c2ccccc2c1-c1c(O)c(Cl)nn(C)c1=O` [Cpd. No. 65] was tested. Which “Plant response rating (0 to 100 scale)” value ([9]; 64 g ai/ha) did it give?
Answer: The value was 98.

Question: And the “Plant response rating (0 to 100 scale)” value ([9]; 125 g ai/ha)?
Answer: Its value is 100.
